Measured values from patent US4394388A, “Method for the control of cattle grubs employing m-phenoxybenzyl and .alpha ” (American Cyanamid Company, priority 1981, dated 1983).

Tested on: Cuterebra sp.
Test: In vivo larvicidal activity against Cuterebra sp. in artificially infested mice (dermal dip)
Settings: mice infested with 5 newly-hatched larvae, body dipped in emulsion 48 h later, larvae examined four days after treatment; for Dermal (mice) Dosage % LC50: concentration killing 50% of larvae; for Dermal (mice) Dosage % LC90: concentration killing 90% of larvae
Protocol: The larvidical activity of the compounds of the invention may be conveniently evaluated by a method accepted by the U.S. Agricultural Research Service, in which mice infected with Cuterebra spp. are treated topically with the compounds under evaluation.
White mice are artificially infested nasally, buccally, or ocularly with 5 newly-hatched larvae of Cuterebra sp. For dermal tests, 48 hours later a plastic collar is placed around the neck of each male mouse, and the portion of the body behind the collar is dipped in 200 ml of an emulsion of a test compound. A standard emulsifiable concentrate consists of 25 parts of test compound, 65 parts of xylene and 10 parts octylphenoxy polyethoxy ethanol of average molecular weight equal to 628 and having from 9 to 10 ethylene oxide units.
The skin of each mouse is examined carefully for encapsulated live larvae four days after treatment. Effectiveness of the treatments is determined by comparing numbers of larvae encapsulated in treated mice with numbers found in untreated control mice. Usually 3 mice/concentration are treated. if mice or the larvae are killed at the initial concentration of 1%, lower concentrations (0.6, 0.3, 0.2, 0.1%, etc.) are tested until there is no systemic activity or the mice survive.
Mortality data are subjected to log-prohibit analysis in order to determine dosages or concentrations that kill 50 or 90% of the larvae.

| SMILES | Dermal (mice) Dosage % LC50 | Dermal (mice) Dosage % LC90 |
| --- | --- | --- |
| CC(C)C(C(=O)OC(C#N)c1cccc(Oc2ccccc2)c1)c1ccc(OC(F)F)cc1 (racemic) [(±)-α-cyano-m-phenoxybenzyl (+)-α-isopropyl-4-difluoromethox] [(±)-α-Cyano-m-phenoxybenzyl(+)-α-isopropyl 4-difluoromethoxyphenylacetate] | .0030% | .0056% |
| CC(C)C(C(=O)OC(C#N)c1cccc(Oc2ccccc2)c1)c1ccc(OC(F)F)cc1 (stereo not drawn) [α-cyano-m-phenoxybenzyl α-isopropyl-4-difluoromethoxyphenyla] [α-Cyano-m-phenoxybenzyl α-isopropyl-4-difluoromethoxyphenylacetate] | .0067% | .015% |
